pIC50: −log10 of the molar value.
Tested on: HCT-116
Assay: Antiproliferative activity against human HCT116 cells assessed as reduction in cell viability incubated for 72 hrs by MTT assay
Assay type: functional, cell-based
Conditions: HCT-116, 72 h

| Compound | pIC50 |
| --- | --- |
| COc1cc(/C=C/C(=O)CC(=O)/C=C/c2ccc(O)c(OC)c2)ccc1O [CURCUMIN] | 4.98 |
| COc1cc(/C=C/C(=O)CC(C)=O)cc(OC)c1O | 4.61 |
| COc1cc(CCC(=O)CC(C)=O)ccc1O | 3.74 |
| COc1cc(CCC(=O)CC(C)=O)cc(OC)c1OC | 3.86 |
| COc1ccc(CCC(=O)CC(C)=O)cc1OC | 3.67 |
| CC(=O)CC(=O)/C=C/c1ccc(O)cc1 | 4.44 |
| COc1cc(OC)c(CCC(=O)CC(C)=O)c(OC)c1 | 3.86 |
| CC(=O)CC(=O)CCc1ccc(O)cc1 | 3.67 |
| COc1cc(/C=C/C(=O)CC(C)=O)cc(OC)c1OC | 4.54 |

Compounds with a higher pIC50, results first:

| pIC50 | Compound |
| --- | --- |
| 5.85 | COc1cc(/C=C/C(=O)CC(C)=O)ccc1O |
| 5.07 | COc1cc(OC)c(/C=C/C(=O)CC(C)=O)c(OC)c1 |
| 5.33 | COc1ccc(/C=C/C(=O)CC(C)=O)cc1OC |
| 5.28 | CC(=O)CC(=O)/C=C/c1ccc(O)c(O)c1 |
